Source: patent US20250115628A1, “FLUORINATED FLUOROPHORES” (HOWARD HUGHES MEDICAL INSTITUTE, priority 2023, published 2025)

How the values were obtained:
HaloTag® protein = biological target: T1, HaloTag® protein (Rhodococcus rhodochrous, UniProt P0A3G2, A155T/A167V/A172T/A224E/C128F/C176G/D78G/E160K/E257K/H272N/K175M/K195N/L47V/L88M/N227D/P291S/S2A/S58T/T264A/Y273L/Y87F); test: Absorption increase of ligands on binding HaloTag® protein; format: biochemical
T1 construct: 6xHis; made in house; host or cells: bacterial expression (pRSET-A vector, Invitrogen)
Description: The bacterial expression vector pRSET-A (Invitrogen) was used to recombinantly express HaloTag® (HT7; Promega).^7 The soluble 6×His-Tagged HaloTag® protein was affinity purified by immobilized metal affinity chromatography (IMAC) on a 5^−mL Fast Flow HiTrap Sepharose 6 column (Cytiva) with a 0-200 mM imidazole elution gradient using an ÄKTA Avant Protein Purification System (Cytiva).
HaloTag® protein was used as a […] solution in 1× TBS. Absorption measurements were performed in 1.4^−mL semi-micro quartz cuvettes. A […] solution of HaloTag® ligand 65HTL or 91HTL was prepared in 10 mM HEPES, pH 7.3 containing 0.1 mg mL-1 CHAPS. An aliquot of HaloTag® protein (2 equiv, […] [HaloTag®]) was added. To examine chromogenicty (FIG. 5B, left panel), the resulting mixture was incubated until a consistent absorption signal/spectrum was observed (<60 min for 65HTL); an equivalent volume of 1× TBS blank was added to separate “−HT” samples in place of enzyme to record the ligand-only absorption. Spectra are averages (n=2). To compare rates of HaloTag® labeling (FIG. 5B, right panel) absorption at λabs (645 nm for 65HTL, 621 nm for 91HTL) was recorded at regular intervals (0.1 min, 0-5 min; 1 min, 5-120 min; 5 min, 2-24 h) immediately following addition of HaloTag® protein.

[1] = test system: U2OS cells stably expressing HaloTag®-histone H2B fusion protein; test: Loading experiments using ligands 65HTL and 91HTL (JF552-HaloTag® ligand chase); format: cell-based; conditions: 200 nM, 0-4 h
Description: U2OS cells (ATCC) and U2OS cells stably expressing an integrated HaloTag®-histone H2B fusion protein (U2OS·H2B·HaloTag®) were cultured in Dulbecco's modified Eagle medium (DMEM, phenol red-free; Life Technologies) supplemented with 10% (v/v) fetal bovine serum (FBS, Life Technologies), 1 mM GlutaMAX (Life Technologies) and maintained at 37° C. in a humidified 5% (v/v) CO2 environment. These cell lines undergo regular mycoplasma testing by the Janelia Cell Culture Facility. For mitochondrial imaging using the HaloTag® system, U2OS cells were transiently transfected using nucleofection (Lonza) with a plasmid constitutively expressing a HaloTag®-TOMM20 fusion protein, which is located on the outer mitochondrial membrane. […]
For loading curve experiments, U2OS·H2B·HaloTag® stable cells were incubated with 200 nM 65HTL and 91HTL for 0-4 h at 37° C., washed 3× with dye-free media then chased with 200 nM JF552-HaloTag® ligand 15 for 30 min at 37° C., washed 3× with dye-free media and fixed with 4% paraformaldehyde in 0.1 M phosphate buffer, pH 7.4 for 15 min at 37° C. […] Fluorescence was quantified as the integrated density of nuclear signals from confocal image stack projections analyzed in FIJI;^82 n=100 nuclear signals per compound.

[2] = test system: ScAMPI (SNAP-tag®-Epac1-HaloTag®) expressed in U2OS cells; test: cAMP FLIM-FRET sensor ScAMPI (fluorescence lifetime imaging); format: cell-based
Text: The Epac-based cAMP sensor “Epac-S^H189”, was obtained from Addgene (Plasmid #170348). This sensor consists of a mTurquoise fluorescent protein and a tdDark Venus protein linked via the Epac1 protein.
To construct the SNAP-tag®-Epac1-HaloTag® sensor, the sequence encoding the tdDark Venus domain in Epac-S^H189 was first replaced with the HaloTag® sequence using Nhe1 and Asc1 fragment ligation (NEB), creating a construct with mTurquoise and HaloTag® flanking the Epac1 domain (i.e, mTurquoise-Epac1-HaloTag®). […]
To evaluate this semisynthetic system in cells, U2OS cells (ATCC) were maintained in DMEM (Corning) containing 10% v/v FBS (ATCC), 1% v/v L-glutamine (Gibco) and 1% v/v Pen/Strep (Gibco). […] Fluorescence lifetime imaging was performed with a Leica SP8 Falcon using LASX software for image acquisition and analysis. […] Fluorescence emission was collected by the HyD detector. […] Mean amplitude weighted lifetime image (τmean) was calculated by fixing the two lifetimes and performing an image fit for their respective amplitudes (a1 and a2). FRET efficiency was calculated using the mean lifetime obtained in absence (τmean,-forskolin) and (τmean,+forskolin) presence of forskolin as 1^−(τmean,-forskolin/τmean,+forskolin).

T1 sequence (P0A3G2 other isoform, or with tags, fused parts or gaps with the stated changes): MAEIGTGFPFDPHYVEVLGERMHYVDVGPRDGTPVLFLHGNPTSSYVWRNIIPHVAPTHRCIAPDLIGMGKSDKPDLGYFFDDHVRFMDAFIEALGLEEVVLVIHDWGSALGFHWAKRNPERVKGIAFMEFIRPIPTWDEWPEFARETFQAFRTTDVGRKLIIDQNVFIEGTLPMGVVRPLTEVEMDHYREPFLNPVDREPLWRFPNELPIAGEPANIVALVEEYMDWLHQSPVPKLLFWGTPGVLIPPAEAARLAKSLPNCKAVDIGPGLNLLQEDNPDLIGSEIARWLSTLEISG

Q: With `C=C/C=C(C=C)/[N+](C)=C1\C=CC2=C(c3c(F)c(C(=O)NCCOCCOCCCCCCCl)c(F)c(F)c3C(=O)[O-])c3ccc(N(C)c4ccccc4)cc3C(C)(C)C2=C1` [65HTL, JQ645-HaloTag® ligand] as the molecule, how does the “HaloTag® labeling in vitro compared with 91HTL” value (HaloTag® protein; absorbance vs. time upon addition to HaloTag® protein) read?
A: Its value is “substantially faster”.

Q: What about the “ε of HaloTag® conjugate” value (HaloTag® protein; after incubation with HaloTag® protein) of the same molecule?
A: The value was 110,000 M^−1 cm^−1.

Q: What about the “λabs used for HaloTag® labeling read-out” value (HaloTag® protein; ligand in 10 mM HEPES, pH 7.3 with CHAPS, HaloTag® protein added) of the same molecule?
A: The value was 645 nm.

Q: What about the “increase in absorptivity on incubation with HaloTag® protein” value (HaloTag® protein; ligand with 2 equiv HaloTag® protein, 10 mM HEPES, pH 7.3) of the same molecule?
A: Its value is 47 fold.

Q: And the “HaloTag® labeling in cells compared with 91HTL” value [1]?
A: The value was “substantially faster”.

Q: What about the “FRET quenching of the JFX612 donor” value [2] of the same molecule?
A: The value was “effective FRET quencher”.
